Experiments:
[1] = Equieffective molar ratio is ratio of the concentration of the test compound and dequalinium that cause 50% inhibition of AHP
Rattus norvegicus [2] = species on record: Rattus norvegicus; test: tested for their ability to inhibit the after- hyperpolarization in cultured rat sympathetic neurons; type: functional, Sympathetic neuron
Rattus norvegicus [3] = species on record: Rattus norvegicus; test: tested for their ability to inhibit the after- hyperpolarization (AHP) in cultured rat sympathetic neurons; type: functional; conditions: Sympathetic neuron
Rattus norvegicus [4] = species on record: Rattus norvegicus; test: tested for their ability to inhibit the after- hyperpolarization in cultured rat sympathetic neurons (omitting the comparison with dequalinium); type: functional; conditions: Sympathetic neuron
[5] = Rattus norvegicus, Sympathetic neuron

SMILES	EMR [1]	IC50 (Rattus norvegicus [2]; [5]) [nM]	IC50 (Rattus norvegicus [3]) [nM]	IC50 (Rattus norvegicus [2]; sympathetic neuron) [nM]	IC50 (Rattus norvegicus [4]) [nM]
Cc1cc(N)c2ccccc2[n+]1CCCCCCCCCC[n+]1c(C)cc(N)c2ccccc21.[Cl-].[Cl-] [DEQUALINIUM CHLORIDE]	1	–	490	–	–
[I-].[I-].c1ccc2c(c1)c1cc[n+]2CCC[n+]2ccc(c3ccccc32)NCCCN1 (stereo in doubt; form 2)	0.77	–	–	380	–
[I-].[I-].c1ccc2c(c1)c1cc[n+]2CCCCCCCC[n+]2ccc(c3ccccc32)NCCCCCCCCN1	0.43	190	–	–	–
[I-].[I-].c1ccc2c(c1)c1cc[n+]2CCCCC[n+]2ccc(c3ccccc32)NCCCCCN1	0.003	2	–	–	2.7
c1cc2cc(c1)C[n+]1ccc(c3ccccc31)NCc1ccc(cc1)CNc1cc[n+](c3ccccc13)C2	0.01	–	–	–	–

Further lines, with some results ahead:

EMR [1]	IC50 (Rattus norvegicus [2]; [5]) [nM]	IC50 (Rattus norvegicus [3]) [nM]	IC50 (Rattus norvegicus [2]; sympathetic neuron) [nM]	SMILES	IC50 (Rattus norvegicus [4]) [nM]
0.1	60	–	–	[I-].[I-].c1ccc2c(c1)c1cc[n+]2CCCCCC[n+]2ccc(c3ccccc32)NCCCCCCN1	–
0.27	–	–	130	[I-].[I-].c1ccc2c(c1)c1cc[n+]2CCC[n+]2ccc(c3ccccc32)NCCCN1 (stereo in doubt; form 1)	–
0.09	40	–	–	[I-].[I-].c1ccc2c(c1)c1cc[n+]2CCCC[n+]2ccc(c3ccccc32)NCCCCN1	–
0.44	260	–	–	[I-].[I-].c1ccc2c(c1)c1cc[n+]2CCCCCCCCCC[n+]2ccc(c3ccccc32)NCCCCCCCCCCN1	–
